Data reported in patent publication US20120065365A1, “Stable Radiopharmaceutical Compositions and Methods for Their Preparation” (BRACCO IMAGING S.P.A., priority 2003, published 2012).
Structures can show the parent of a compound that is named as a salt. Where two headings read alike, the source gives them in different places.

Legend:
[1] = format: physicochemical; conditions: for RCP % t = 0 h: ^177Lu-A (5.28 mCi avg) prepared in presence of stabilizer 3.33 mg/mL; for RCP (%) t = 72 h: ^177Lu-A prepared and stored in presence of stabilizer 3.33 mg/mL, room temperature
Description: 10 mg/mL solutions of thiamine hydrochloride and L-glutathione were prepared by disserving them in water. 10 mg/mL solutions of 3-hydroxycinnamic acid, 4-hydroxyantipyrine and acetylsalicylic acid were prepared by dissolving them in 50% EtOH/water. 10 mg/mL solutions of 2-hydroxybenzothiazole and 2,1,3-benzothiadiazole were prepared by dissolving them in EtOH.

[2] = Radiostability (RCP, Met═O by HPLC) of preformed ^177Lu-A with individual amino acids added (Example 1); format: physicochemical; conditions: amino acid 6.6 mg/mL, room temperature; for 0-1 h RCP (%): ^177Lu-A ~20 mCi/mL (3.5 mCi total); for 24-h RCP (%) / 48-h RCP (%): ^177Lu-A ~20 mCi/mL
Description: (§1) The injection volume was 20 μL.
Solutions of the individual amino acids L-Methionine, L-Selenomethionine, L-cysteine HCl.H2O, L-Tryptophan, L-Histidine, and Glycine were prepared at a concentration of 10 mg/mL in 10 mM Dulbecco's phosphate-buffered saline, pH 7.0 [PBS].
The final radioactive concentration of each sample was ˜20 mCi/mL.

[3] = format: physicochemical; conditions: for Replicate 1 RCP % t = 0 h: ^177Lu-A (3.55 mCi avg) prepared in presence of 5 mg/mL stabilizer, HPLC Method 1, t = 0 h; for Replicate 2 RCP % t = 0 h / Replicate 2 RCP % t = 24 h: ^177Lu-A (4.37 mCi avg) prepared in presence of 5 mg/mL stabilizer; for Replicate 2 RCP % t = 0 h: HPLC Method 2, t = 0 h; for Replicate 2 RCP % t = 24 h: HPLC Method 2, t = 24 h
Description: as §1
Each stabilizer was prepared at a concentration of 5 mg/mL in sodium acetate (NaOAc) buffer (0.2 M, pH 4.8). To lead-shielded 4-mL vials were added 200 μL of the individual stabilizer solutions, 3.55 mCi ^177LuCl3 (avg) and 5.44 μg COMPOUND A (dissolved in water). A second set of replicates of each sample was prepared, using the individual stabilizers. To these was added 4.37 mCi ^177LuCl3 (avg) and 6.7 μg (avg) COMPOUND A (dissolved in water). The ratio of COMPOUND A to lutetium was 3:1 for all samples. The reaction mixture was heated to 100° C. for 5 minutes then cooled for 5 minutes in an ambient-temperature water bath. To each sample, 10 μL of 2% Na2EDTA.2H2O in water was added, then each was analyzed by HPLC (Method 1 for the first set of replicates; Method 2 for the second set of replicates). The second set of replicates were stored and analyzed again at t=24 h.

[4] = format: physicochemical; conditions: ^177Lu-A (3.6 mCi) prepared in presence of 2.5 mg/mL stabilizer
Description: To lead-shielded 4-mL vials was added 200 μL of the individual NaOAc-stabilizer solutions, 3.58 mCi ^177LuCl3 (avg) and 5.08 μg COMPOUND A (dissolved in water). The ratio of COMPOUND A to Lutetium was 3:1 for all samples. The reaction mixtures were heated to 100° C. for 5 minutes, then cooled, treated with Na2EDTA.2H2O, subdivided and stored as described in Example 9. The radiochemical purity (RCP) percentage data obtained are listed Table 12.

[5] = format: physicochemical; conditions: ^177Lu-A (2.7-3.7 mCi) prepared in presence of 1 mg/mL stabilizer; for RCP % t = 24 h (frozen): 24 h frozen (−10° C.)
Description: The injection volume was 10 μL.
Each individual stabilizer was prepared at a concentration of 1 mg/mL in sodium acetate (NaOAc) buffer (0.2 M, pH 4.8). […] The reaction mixture was heated to 100° C. for 5 minutes, and then cooled for 5 minutes in an ambient-temperature water hath. To each sample, 10 μL of 2% Na2EDTA.2H2in water was added, and then each was divided into two 100-μL aliquots. One aliquot was analyzed by HPLC (Method 5) and then stored at room temperature in a sealed lead container for 24 hours. The other aliquot was stored frozen (−10° C.) for 24 hours. Each sample was analyzed at t=24 h.

[6] = format: physicochemical
Description: The reaction vial was crimp-sealed and heated at 100° C. for 5 min. […] The sample was stored in an autosampler in which the temperature is ˜6° C. […] than room temperature, and analyzed by RP-HPLC for up to 24 hours.
L-Selenomethionine: ^177Lu-B was prepared, diluted and analyzed as described above, but 5 mg of L-Se-Met was used in place of PDTC, the heating time was 10 minutes, and the quantity of radioactivity used was 52 mCi.
L-cysteine ethyl ester, HCl: ^177Lu-B was prepared, diluted and analyzed as described above, but 5 mg of L-CEE, hydrochloride salt was used in place of PDTC, the heating time was 5 minutes and the quantity of radioactivity used was 50 mCi.
L-cysteine HCl.H2O: ^177Lu-B was prepared, diluted and analyzed as described above, but 5 mg of L-Cys HCl.H2O was used in place of PDTC, the heating time was 8 minutes and the quantity of radioactivity used was 53 mCi.

For `Cc1ncc(C[n+]2csc(CCO)c2C)c(N)n1` [Thiamine hydrochloride, reference compound], which “RCP % t = 0 h” value [1] is on record?
Its value is 97.0%.

And the “RCP (%) t = 72 h” value [1]?
The value was 0%.

Which results are given for `NCC(=O)O` [Glycine]?
0-1 h RCP (%) [2]: 96.4%; 24-h RCP (%) [2]: 14.6%; 48-h RCP (%) [2]: 0%

Which “RCP % t = 0 h” value [1] does the source give for `CC(=O)Oc1ccccc1C(=O)O` [Acetylsalicylic acid, Acetylsalicyclic acid, reference compound] here?
Its value is 73.0%.

What about the “RCP (%) t = 72 h” value [1] of the same compound?
The value was 0%.

For `c1ccc2nsnc2c1` [2,1,3-Benzothiadiazole], which “RCP % t = 0 h” value [1] is on record?
The value was 98.6%.

What about the “RCP (%) t = 72 h” value [1] of the same compound?
Its value is 3.1%.

With `N[C@@H](CCC(=O)N[C@@H](CS)C(=O)NCC(=O)O)C(=O)O` [L-Glutathione, L-Glutathione, reduced] as the compound, how does the “RCP % t = 0 h” value [1] read?
The value was 91.1%.

What about the “RCP (%) t = 72 h” value [1] of the same compound?
The value was 0%.

Which “0-1 h RCP (%)” value [2] does the source give for `N[C@@H](Cc1c[nH]c2ccccc12)C(=O)O` [Tryptophan, L-Tryptophan] here?
Its value is 95.5%.

What about the “24-h RCP (%)” value [2] of the same compound?
Its value is 51.4%.

What about the “48-h RCP (%)” value [2] of the same compound?
The value was 18.2%.

For `O=C(O)/C=C/c1cccc(O)c1` [3-Hydroxycinnamic acid], which “RCP % t = 0 h” value [1] is on record?
The value was 96.6%.

And the “RCP (%) t = 72 h” value [1]?
The value was 0%.

With `Cc1c(O)c(=O)n(-c2ccccc2)n1C` [4-Hydroxyantipyrine] as the compound, how does the “RCP % t = 0 h” value [1] read?
Its value is 99.9%.

And the “RCP (%) t = 72 h” value [1]?
The value was 0%.

What does the source list for `N[C@@H](Cc1c[nH]cn1)C(=O)O` [Histidine, L-Histidine]?
0-1 h RCP (%) [2]: 92.5%; 24-h RCP (%) [2]: 4.6%; 48-h RCP (%) [2]: 0%

What does the source list for `O=C1O[C@H]([C@@H](O)CO)C([O-])=C1O.[Na+]` [Ascorbic acid, Sodium L-ascorbate (Ascorbic acid)]?
Replicate 1 RCP % t = 0 h [3]: 87.6%; Replicate 2 RCP % t = 0 h [3]: 30.2%; Replicate 2 RCP % t = 24 h [3]: 24.5%; RCP % t = 24 h (frozen) [4]: 78.4%; RCP % t = 24 h (room temp) [4]: 88.1%; RCP % t = 0 h [5]: 98.7%

Which results are given for `Oc1nc2ccccc2s1` [2-Hydroxybenzothiazole]?
RCP % t = 0 h [1]: 96.2%; RCP (%) t = 72 h [1]: 9.6%

With `N[C@@H](CS)C(=O)O` [L-cysteine, L-cysteine hydrochloride monohydrate] as the compound, how does the “(% RCP) 3-h” value ([6]; ^177Lu-B (44-53 mCi) formulated with 5 mg stabilizing compound, 3 h) read?
The value was 94.7%.

What about the “(% RCP) 6-h” value ([6]; ^177Lu-B (44-53 mCi) formulated with 5 mg stabilizing compound, 6 h) of the same compound?
Its value is 87.3%.

And the “(% RCP) 9-h” value ([6]; ^177Lu-B (44-53 mCi) formulated with 5 mg stabilizing compound, 9 h)?
Its value is 79.4%.

And the “(% RCP) 12-h” value ([6]; ^177Lu-B (44-53 mCi) formulated with 5 mg stabilizing compound, 12 h)?
The value was 73.6%.

And the “(% RCP) 24-h” value ([6]; ^177Lu-B (44-53 mCi) formulated with 5 mg stabilizing compound, 24 h)?
Its value is 50.9%.

And the “(% RCP) 0-h” value ([6]; ^177Lu-B (44-53 mCi) formulated with 5 mg stabilizing compound, diluted to ~2 mL, ~6° C. above room temperature, 0 h)?
The value was 99.1%.

And the “RCP Drop over 24 hr” value ([6]; ^177Lu-B formulated with 5 mg stabilizing compound, 0 to 24 h)?
The value was 48.2%.

And the “Replicate 1 RCP % t = 0 h” value [3]?
The value was 93.3%.

What about the “Replicate 2 RCP % t = 0 h” value [3] of the same compound?
Its value is 91.0%.

What about the “Replicate 2 RCP % t = 24 h” value [3] of the same compound?
Its value is 67.4%.

What about the “RCP % t = 24 h (frozen)” value [4] of the same compound?
The value was 51.0%.

What about the “RCP % t = 24 h (room temp)” value [4] of the same compound?
The value was 88.3%.

And the “RCP % t = 0 h” value [4]?
The value was 100%.

And the “RCP % t = 24 h (frozen)” value [5]?
Its value is 82.1%.

And the “RCP % t = 24 h (room temp)” value [5]?
Its value is 83.3%.

What about the “RCP % t = 0 h” value [5] of the same compound?
Its value is 100%.

With `CSCC[C@@H](N)C(=O)O` [D-Methionine] as the compound, how does the “Replicate 1 RCP % t = 0 h” value [3] read?
The value was 100%.

What about the “Replicate 2 RCP % t = 0 h” value [3] of the same compound?
Its value is 97.6%.

What about the “Replicate 2 RCP % t = 24 h” value [3] of the same compound?
The value was 80.7%.

What about the “RCP % t = 24 h (frozen)” value [4] of the same compound?
The value was 100%.

What about the “RCP % t = 24 h (room temp)” value [4] of the same compound?
The value was 99.6%.

What about the “RCP % t = 0 h” value [4] of the same compound?
Its value is 100%.

What about the “RCP % t = 24 h (frozen)” value [5] of the same compound?
Its value is 100%.

What about the “RCP % t = 24 h (room temp)” value [5] of the same compound?
Its value is 100%.

What about the “RCP % t = 0 h” value [5] of the same compound?
The value was 100%.

With `O=C([O-])c1cc(O)ccc1O.[Na+]` [Gentisic acid, 2,5-Dihydroxybenzoic acid sodium salt hydrate (Gentisic acid)] as the compound, how does the “Replicate 1 RCP % t = 0 h” value [3] read?
Its value is 93.9%.

What about the “Replicate 2 RCP % t = 0 h” value [3] of the same compound?
The value was 96.6%.

And the “Replicate 2 RCP % t = 24 h” value [3]?
The value was 75.2%.

And the “RCP % t = 24 h (frozen)” value [4]?
Its value is 82.8%.

And the “RCP % t = 24 h (room temp)” value [4]?
The value was 78.6%.

What about the “RCP % t = 0 h” value [4] of the same compound?
The value was 100%.

What about the “RCP % t = 24 h (frozen)” value [5] of the same compound?
The value was 84.3%.

And the “RCP % t = 24 h (room temp)” value [5]?
The value was 64.9%.

And the “RCP % t = 0 h” value [5]?
Its value is 100%.
